Reference: US5441936A, “Antiviral peptides” (priority 1993, dated 1995)
Non-standard residues stand in square brackets, D forms with d. Residues, ends and D or L forms follow the SMILES beside them.

System: Herpes Simplex Virus Type-1
Test: Herpes Simplex Virus Type-1 plaque inhibition assay in Vero cells
Type: cell-based, Herpes simplex type 1 virus (HSV-1)
Details: Vero cells infected with 50 to 60 pfu HSV-1; peptide added after 2 hr virus incubation; concentration that inhibited growth of 50% of the input HSV-1
Method: Vero cells were seeded into 24-we! l tissue culture plates 24 to 48 hr prior to performing the plaque assay. Herpes simplex type 1 virus (HSV-1) was diluted to 50 to 60 plaque forming units (pfu)/0.1 ml Medium 199 and 0.1 ml was added to the cells. Control cultures received 0.1 ml Medium 199 without HSV-1. Plates were incubated for 2 hr at 37° C. in 5% carbon dioxide.
Following incubation of the cells with or without HSV-1, the medium was removed by aspiration. The peptides to be tested for antiviral activity were diluted in Dulbecco's modified Eagle's medium supplemented with 0.2% human gamma globulin, 5% fetal bovine serum, 10 units/ml penicillin and 5μg/ml streptomycin and 1 ml of the peptide solution was added to each of duplicate wells. Medium only was added to wells labelled for input virus or cell controls.
Cells were observed by microscopy at 24 and 48 hr to identify toxicity due to the peptides. Following the incubation period, medium was removed by aspiration and the cultures were fixed using methanol and stained with 0.037% Geimsa for 45 min. The stain was removed and the plates were rinsed and allowed to air dry. The concentration of peptide that inhibited growth of 50% of the input HSV-1 (IC50) was determined for each peptide by counting the number of viral plaques present in the peptide-treated wells as compared with the input virus control wells.
Using the plaque inhibition assay, a peptide was considered to have no antiviral effect in this assay if greater than 100 μg/ml of the peptide was required to inhibit growth of 50% of the input HSV-1.

Row | Compound | Herpes Simplex Virus Type-1 Plaque Inhibition IC50 [µg/mL]
1 | CC(=O)N[C@H](CCCNC(=N)N)C(=O)N[C@H](CCCNC(=N)N)C(=O)N[C@H](Cc1c[nH]c2ccccc12)C(=O)N[C@H](Cc1c[nH]c2ccccc12)C(=O)N[C@H](CS)C(=O)N[C@H](CCCNC(=N)N)C(=O)N[C@H](C)C(N)=O [Ac-Arg-Arg-Trp-Trp-Cys-Arg-Ala-NH2] | 35
2 | CC(=O)N[C@H](CCCNC(=N)N)C(=O)N[C@H](CCCNC(=N)N)C(=O)N[C@H](Cc1c[nH]c2ccccc12)C(=O)N[C@H](Cc1c[nH]c2ccccc12)C(=O)N[C@H](CS)C(=O)N[C@H](CCCNC(=N)N)C(=O)N[C@H](CCCNC(=N)N)C(N)=O [Ac-Arg-Arg-Trp-Trp-Cys-Arg-Arg-NH2] | 62
3 | CC(=O)N[C@H](CCCNC(=N)N)C(=O)N[C@H](CCCNC(=N)N)C(=O)N[C@H](Cc1c[nH]c2ccccc12)C(=O)N[C@H](Cc1c[nH]c2ccccc12)C(=O)N[C@H](CS)C(=O)N[C@H](CCCNC(=N)N)C(=O)N[C@H](CC(N)=O)C(N)=O [Ac-Arg-Arg-Trp-Trp-Cys-Arg-Asn-NH2] | 85
4 | CC(=O)N[C@H](CCCNC(=N)N)C(=O)N[C@H](CCCNC(=N)N)C(=O)N[C@H](Cc1c[nH]c2ccccc12)C(=O)N[C@H](Cc1c[nH]c2ccccc12)C(=O)N[C@H](CS)C(=O)N[C@H](CCCNC(=N)N)C(=O)N[C@H](CC(=O)O)C(N)=O [Ac-Arg-Arg-Trp-Trp-Cys-Arg-Asp-NH2] | > 100
5 | CC(=O)N[C@H](CCCNC(=N)N)C(=O)N[C@H](CCCNC(=N)N)C(=O)N[C@H](Cc1c[nH]c2ccccc12)C(=O)N[C@H](Cc1c[nH]c2ccccc12)C(=O)N[C@H](CS)C(=O)N[C@H](CCCNC(=N)N)C(=O)N[C@H](CS)C(N)=O [Ac-Arg-Arg-Trp-Trp-Cys-Arg-Cys-NH2] (Ac-[dR][dR][dW][dW][dC][dR][dC]-NH2) | 50
6 | CC(=O)N[C@H](CCCNC(=N)N)C(=O)N[C@H](CCCNC(=N)N)C(=O)N[C@H](Cc1c[nH]c2ccccc12)C(=O)N[C@H](Cc1c[nH]c2ccccc12)C(=O)N[C@H](CS)C(=O)N[C@H](CCCNC(=N)N)C(=O)N[C@H](CCC(N)=O)C(N)=O [Ac-Arg-Arg-Trp-Trp-Cys-Arg-Gln-NH2] | 37
7 | CC(=O)N[C@H](CCCNC(=N)N)C(=O)N[C@H](CCCNC(=N)N)C(=O)N[C@H](Cc1c[nH]c2ccccc12)C(=O)N[C@H](Cc1c[nH]c2ccccc12)C(=O)N[C@H](CS)C(=O)N[C@H](CCCNC(=N)N)C(=O)N[C@H](CCC(=O)O)C(N)=O [Ac-Arg-Arg-Trp-Trp-Cys-Arg-Glu-NH2] | > 100
8 | CC(=O)N[C@H](CCCNC(=N)N)C(=O)N[C@H](CCCNC(=N)N)C(=O)N[C@H](Cc1c[nH]c2ccccc12)C(=O)N[C@H](Cc1c[nH]c2ccccc12)C(=O)N[C@H](CS)C(=O)N[C@H](CCCNC(=N)N)C(=O)NCC(N)=O [Ac-Arg-Arg-Trp-Trp-Cys-Arg-Gly-NH2] | > 100
9 | CC(=O)N[C@H](CCCNC(=N)N)C(=O)N[C@H](CCCNC(=N)N)C(=O)N[C@H](Cc1c[nH]c2ccccc12)C(=O)N[C@H](Cc1c[nH]c2ccccc12)C(=O)N[C@H](CS)C(=O)N[C@H](CCCNC(=N)N)C(=O)N[C@H](Cc1c[nH]cn1)C(N)=O [Ac-Arg-Arg-Trp-Trp-Cys-Arg-His-NH2] | > 100
10 | CC[C@@H](C)[C@@H](NC(=O)[C@@H](CCCNC(=N)N)NC(=O)[C@@H](CS)NC(=O)[C@@H](Cc1c[nH]c2ccccc12)NC(=O)[C@@H](Cc1c[nH]c2ccccc12)NC(=O)[C@@H](CCCNC(=N)N)NC(=O)[C@@H](CCCNC(=N)N)NC(C)=O)C(N)=O [Ac-Arg-Arg-Trp-Trp-Cys-Arg-Ile-NH2] | > 100
11 | CC(=O)N[C@H](CCCNC(=N)N)C(=O)N[C@H](CCCNC(=N)N)C(=O)N[C@H](Cc1c[nH]c2ccccc12)C(=O)N[C@H](Cc1c[nH]c2ccccc12)C(=O)N[C@H](CS)C(=O)N[C@H](CCCNC(=N)N)C(=O)N[C@H](CC(C)C)C(N)=O [Ac-Arg-Arg-Trp-Trp-Cys-Arg-Leu-NH2] | 61
12 | CC(=O)N[C@H](CCCNC(=N)N)C(=O)N[C@H](CCCNC(=N)N)C(=O)N[C@H](Cc1c[nH]c2ccccc12)C(=O)N[C@H](Cc1c[nH]c2ccccc12)C(=O)N[C@H](CS)C(=O)N[C@H](CCCNC(=N)N)C(=O)N[C@H](CCCCN)C(N)=O [Ac-Arg-Arg-Trp-Trp-Cys-Arg-Lys-NH2] | 50
13 | CSCC[C@@H](NC(=O)[C@@H](CCCNC(=N)N)NC(=O)[C@@H](CS)NC(=O)[C@@H](Cc1c[nH]c2ccccc12)NC(=O)[C@@H](Cc1c[nH]c2ccccc12)NC(=O)[C@@H](CCCNC(=N)N)NC(=O)[C@@H](CCCNC(=N)N)NC(C)=O)C(N)=O [Ac-Arg-Arg-Trp-Trp-Cys-Arg-Met-NH2] | > 50
14 | CC(=O)N[C@H](CCCNC(=N)N)C(=O)N[C@H](CCCNC(=N)N)C(=O)N[C@H](Cc1c[nH]c2ccccc12)C(=O)N[C@H](Cc1c[nH]c2ccccc12)C(=O)N[C@H](CS)C(=O)N[C@H](CCCNC(=N)N)C(=O)N[C@H](Cc1ccccc1)C(N)=O [Ac-Arg-Arg-Trp-Trp-Cys-Arg-Phe-NH2] | 59
15 | CC(=O)N[C@H](CCCNC(=N)N)C(=O)N[C@H](CCCNC(=N)N)C(=O)N[C@H](Cc1c[nH]c2ccccc12)C(=O)N[C@H](Cc1c[nH]c2ccccc12)C(=O)N[C@H](CS)C(=O)N[C@H](CCCNC(=N)N)C(=O)N1CCC[C@@H]1C(N)=O [Ac-Arg-Arg-Trp-Trp-Cys-Arg-Pro-NH2] | > 100
16 | CC(=O)N[C@H](CCCNC(=N)N)C(=O)N[C@H](CCCNC(=N)N)C(=O)N[C@H](Cc1c[nH]c2ccccc12)C(=O)N[C@H](Cc1c[nH]c2ccccc12)C(=O)N[C@H](CS)C(=O)N[C@H](CCCNC(=N)N)C(=O)N[C@H](CO)C(N)=O [Ac-Arg-Arg-Trp-Trp-Cys-Arg-Ser-NH2] | > 100
17 | CC(=O)N[C@H](CCCNC(=N)N)C(=O)N[C@H](CCCNC(=N)N)C(=O)N[C@H](Cc1c[nH]c2ccccc12)C(=O)N[C@H](Cc1c[nH]c2ccccc12)C(=O)N[C@H](CS)C(=O)N[C@H](CCCNC(=N)N)C(=O)N[C@@H](C(N)=O)[C@H](C)O [Ac-Arg-Arg-Trp-Trp-Cys-Arg-Thr-NH2] | > 100
18 | CC(=O)N[C@H](CCCNC(=N)N)C(=O)N[C@H](CCCNC(=N)N)C(=O)N[C@H](Cc1c[nH]c2ccccc12)C(=O)N[C@H](Cc1c[nH]c2ccccc12)C(=O)N[C@H](CS)C(=O)N[C@H](CCCNC(=N)N)C(=O)N[C@H](Cc1c[nH]c2ccccc12)C(N)=O [Ac-Arg-Arg-Trp-Trp-Cys-Arg-Trp-NH2] | 37
19 | CC(=O)N[C@H](CCCNC(=N)N)C(=O)N[C@H](CCCNC(=N)N)C(=O)N[C@H](Cc1c[nH]c2ccccc12)C(=O)N[C@H](Cc1c[nH]c2ccccc12)C(=O)N[C@H](CS)C(=O)N[C@H](CCCNC(=N)N)C(=O)N[C@H](Cc1ccc(O)cc1)C(N)=O [Ac-Arg-Arg-Trp-Trp-Cys-Arg-Tyr-NH2] | > 100
20 | CC(=O)N[C@H](CCCNC(=N)N)C(=O)N[C@H](CCCNC(=N)N)C(=O)N[C@H](Cc1c[nH]c2ccccc12)C(=O)N[C@H](Cc1c[nH]c2ccccc12)C(=O)N[C@H](CS)C(=O)N[C@H](CCCNC(=N)N)C(=O)N[C@@H](C(N)=O)C(C)C [Ac-Arg-Arg-Trp-Trp-Cys-Arg-Val-NH2] | 58
